Read-outs that look alike come from different tables or passages of the source.
What was measured:
human D2R/β-arrestin [1] = biological target: T1, human D2R/β-arrestin (Homo sapiens (Human), UniProt P14416); assay: β-Arrestin agonist assay (PathHunter); format: cell-based; conditions: CHO-K1 cell line expressing human D2R/β-arrestin
Summary of the method: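 Readout follows addition of Buffer:Emerald II:Galactor-Star reagent (19:5:1) to agonist-treated plates, measured as luminescence or fluorescence.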

human D2R/β-arrestin [2] = biological target: T1, human D2R/β-arrestin; assay: Gi/cAMP agonist assay (Lance Ultra cAMP, Forskolin); format: cell-based; conditions: CHO-K1 cell line expressing human D2R/β-arrestin
Summary of the method: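 Read-out was Lance Ultra competitive TR-FRET (Eu-cAMP tracer plus ULight-anti-cAMP) following forskolin-induced cAMP production. Before forskolin stimulation, compounds were pin-transferred onto the seeded cells for 10 min at 37 °C.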

human D2R/β-arrestin [3] = biological target: T1, human D2R/β-arrestin; conditions: read-out: β-arrestin Antagonist
human D2R/β-arrestin [4] = biological target: T1, human D2R/β-arrestin; conditions: read-out: cAMP Antagonist
Method: The detection reagents are then added, and the read-out is detected.
Cells were prepared for assays by growing cultures for up to 2 weeks (from about 6-20 passages). A vial of frozen cells was thawed in a water bath held at 37° C. The cells were then transferred into a 50 ml tube with 10 ml growth media. The vial was rinsed with growth media and the contents transferred to the 50 ml tube. The 50 ml tube was centrifuged at 1200 rpm for 5 minutes at room temperature. […] When the cells reached about 90% confluence (approximately 3 days between passages), the cells were passaged and used for either the agonist or antagonist assays as described below.
The cells were prepared for Gi/cAMP assays as described above. The assays were performed using a PE Lance Ultra cAMP kit (TRF0263). The cells were grown on 225 mm dishes, then washed once with 1×PBS (Cellgro) before digestion with 2.5 ml 1× Detachment reagent (DRX 92-0009) for about 2 minutes. PBS (20 ml) was then added to the plate, and the cells were transferred to a 50 ml centrifuge tube, and centrifuged at room temperature using BD Dynac III, at 1200 rpm for 5 minutes. […] The plates were then incubated at room temperature for about 30 minutes before addition of Eu-cAMP tracer solution (100, PerkinElmer) and then ULight-anti-cAMP solution (100) to each well.

human D2R/β-arrestin [5] = biological target: T1, human D2R/β-arrestin; assay: cell-based; conditions: β-arrestin Antagonist, CHO-K1 cell line expressing human D2R/β-arrestin; quinpirole used as agonist
[6] = CHO-K1 cell line expressing human D2R/β-arrestin, quinpirole used as agonist

T1 sequence (P14416 whole entry): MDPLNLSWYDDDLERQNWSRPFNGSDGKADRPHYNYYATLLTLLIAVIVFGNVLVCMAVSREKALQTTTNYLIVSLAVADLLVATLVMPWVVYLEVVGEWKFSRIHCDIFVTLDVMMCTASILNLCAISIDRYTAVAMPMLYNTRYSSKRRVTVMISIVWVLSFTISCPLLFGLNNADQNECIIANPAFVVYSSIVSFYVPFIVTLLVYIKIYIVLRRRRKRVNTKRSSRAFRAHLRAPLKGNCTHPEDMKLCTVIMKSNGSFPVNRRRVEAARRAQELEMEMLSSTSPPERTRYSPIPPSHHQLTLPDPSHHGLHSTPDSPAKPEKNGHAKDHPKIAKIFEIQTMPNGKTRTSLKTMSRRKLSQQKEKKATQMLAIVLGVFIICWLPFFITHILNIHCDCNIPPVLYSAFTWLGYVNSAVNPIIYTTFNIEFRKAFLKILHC

IC50 (human D2R/β-arrestin [3]; [6]) | IC50 (human D2R/β-arrestin [4]; [6]) | IC50 (human D2R/β-arrestin [5]) | SMILES | EC50 (human D2R/β-arrestin [1]) | EC50 (human D2R/β-arrestin [2]) | IC50 (human D2R/β-arrestin [3]) | IC50 (human D2R/β-arrestin [4])
 |  |  | COc1cccc(C(NC(=O)C2CCN(CCOc3ccccc3)CC2)c2ccccn2)c1 (centres unmarked) [Compound 35a] | > 30000 nM | 10000 to 30000 nM | 10000 to 30000 nM | 10000 to 30000 nM
 |  |  | O=C(NC(c1ccc(Cl)cc1)c1ccccn1)C1CCN(CCOc2cccc(F)c2)CC1 (single isomer, unassigned) [Compound 4a] | 1000 to 10000 nM | 100 to 1000 nM | 1000 to 10000 nM | > 30000 nM
 |  |  | O=C(NC(c1cccc(OC(F)(F)F)c1)c1ccccn1)C1CCN(CCOc2ccccc2)CC1 (single isomer, unassigned) [Compound 118a, 1-(2-phenoxyethyl)-N-(pyridin-2-yl(3-(trifluoromethoxy)phenyl)methyl) piperidine-4-carboxamide] | > 30000 nM | 10000 to 30000 nM | 10000 to 30000 nM | > 30000 nM
 |  |  | O=C(NC(c1ccc(Cl)cc1)c1ccccn1)C1CCN(CCOc2cc(F)ccc2F)CC1 (single isomer, unassigned) [Compound 14a] | 100 to 1000 nM | < 100 nM | 1000 to 10000 nM | > 30000 nM
1000 to 10000 nM | 1000 to 10000 nM |  | Fc1ccc(C(NCC2CCN(CCOc3ccccc3)CC2)c2ccccn2)cc1 (single isomer, unassigned) [Compound 78b, 1-(4-fluorophenyl)-N-((1-(2-phenoxyethyl)piperidin-4-yl)methyl)-1-(pyridin-2-yl)methanamine] | > 30000 nM | > 30000 nM |  | 
 |  |  | O=C(NC(c1ccc(F)cc1)c1ccc(Cl)cc1)C1CCN(CCOc2ccccc2)CC1 (single isomer, unassigned) [Compound 42a] | > 30000 nM | 100 to 1000 nM | 100 to 1000 nM | 100 to 1000 nM
 |  |  | O=C(NC(c1ccc(F)cc1)c1ccccn1)C1CCN(CCOc2ccccc2F)CC1 (single isomer, unassigned) [Compound 54a, 1-(2-(2-fluorophenoxy)ethyl)-N-((4-fluorophenyl)(pyridin-2-yl)methyl) piperidine-4-carboxamide] | > 30000 nM | > 30000 nM | < 100 nM | < 100 nM
 |  |  | O=C(NC(c1ccc(Cl)cc1)c1ccccn1)C1CCN(CCOc2ccc3cccnc3c2)CC1 (single isomer, unassigned) [Compound 16a] | 1000 to 10000 nM | < 100 nM | > 30000 nM | > 30000 nM
 |  |  | O=C(NC(c1cccc(F)c1)c1ccccn1)C1CCN(CCOc2ccccc2)CC1 (centres unmarked) [Compound 27] | > 30000 nM | 100 to 1000 nM | 1000 to 10000 nM | > 30000 nM
 |  |  | O=C(NC(c1ccc(Cl)cc1)c1ccccc1F)C1CCN(CCOc2ccccc2)CC1 (single isomer, unassigned) [Compound 40a, N((4-chlorophenyl)(2-fluorophenyl)methyl)-1-(2-phenoxyethyl) piperidine-4-carboxamide] | > 30000 nM | > 30000 nM | 100 to 1000 nM | 100 to 1000 nM
 |  |  | O=C(NC(c1ccc(Cl)cc1)c1ccccc1F)C1CCN(CCOc2ccccc2)CC1 (single isomer, unassigned) [Compound 40b, N((4-chlorophenyl)(2-fluorophenyl)methyl)-1-(2-phenoxyethyl) piperidine-4-carboxamide] | > 30000 nM | 1000 to 10000 nM | 1000 to 10000 nM | > 30000 nM
 | 100 to 1000 nM | 1000 to 10000 nM | Fc1ccccc1OCCN1CCC(CNC(c2ccc3c(c2)OCO3)c2ccccn2)CC1 (single isomer, unassigned) [Compound 139b, 1-(benzo[d][1,3]dioxol-5-yl)-N-((1-(2-(2-fluorophenoxy)ethyl)piperidin-4-yl)methyl)-1-(pyridin-2-yl)methanamine] | > 30000 nM | 100 to 1000 nM |  | 
 |  |  | O=C(NC(c1ccc2c(c1)OCO2)c1ccccn1)C1CCN(CCOc2ccccc2F)CC1 (single isomer, unassigned) [Compound 95a, N-(benzo[d][1,3]dioxol-5-yl(pyridin-2-yl)methyl)-1-(2-(2-fluorophenoxy)ethyl) piperidine-4-carboxamide] | > 30000 nM | > 30000 nM | 100 to 1000 nM | 100 to 1000 nM
 |  |  | O=C(NC(c1ccccc1)c1ccc(F)cc1)C1CCN(CCOc2ccccc2)CC1 (single isomer, unassigned) [Compound 45a] | > 30000 nM | > 30000 nM | 100 to 1000 nM | 100 to 1000 nM
 |  |  | CC1(C(=O)NC(c2ccc(F)cc2)c2ccccn2)CCN(CCOc2ccccc2C(F)(F)F)CC1 (single isomer, unassigned) [Compound 70a, N-((4-fluorophenyl)(pyridin-2-yl)methyl)-4-methyl-1-(2-(2-(trifluoromethyl)phenoxy)ethyl) piperidine-4-carboxamide] | > 30000 nM | > 30000 nM | < 100 nM | < 100 nM
 |  |  | O=C(NC(c1ccc(F)cc1)c1ccccn1)C1CCN(CCOc2ccccc2C(F)(F)F)CC1 (single isomer, unassigned) [Compound 52b] | > 30000 nM | > 30000 nM | 100 to 1000 nM | 100 to 1000 nM
 |  |  | O=C(NC(c1ccc(Cl)cc1)c1ccccn1)C1CCN(CCOc2ccccc2F)CC1 (single isomer, unassigned) [Compound 3b] | > 30000 nM | < 100 nM | 100 to 1000 nM | > 30000 nM
 |  |  | O=C(NC(c1ccc2c(c1)OC(F)(F)O2)c1ccccn1)C1CCN(CCOc2ccccc2)CC1 (single isomer, unassigned) [Compound 119a] | > 30000 nM | > 30000 nM | 1000 to 10000 nM | 1000 to 10000 nM
 |  |  | O=C(NC(c1ccc(Cl)cc1)c1ccccn1)C1CCN(CCOc2ccc3cccnc3c2)CC1 (single isomer, unassigned) [Compound 16b] | > 30000 nM | 1000 to 10000 nM | > 30000 nM | > 30000 nM
 |  |  | O=C(NC(c1ccc(Cl)cc1)c1ccccc1F)C1CCN(CCOc2ccccc2F)CC1 (single isomer, unassigned) [Compound 96b, N-((4-chlorophenyl)(2-fluorophenyl)methyl)-1-(2-(2-fluorophenoxy)ethyl) piperidine-4-carboxamide] | > 30000 nM | > 30000 nM | 100 to 1000 nM | 100 to 1000 nM
 |  |  | O=C(NC(c1ccc(Cl)cc1)c1ccccn1)C1CCN(CCOc2cc(F)ccc2F)CC1 (single isomer, unassigned) [Compound 14b] | > 30000 nM | > 30000 nM | 100 to 1000 nM | 1000 to 10000 nM
 |  |  | O=C(NC(c1ccc(F)cc1)c1ccccn1)C1CCN(CCOc2ccccc2Cl)CC1 (single isomer, unassigned) [Compound 53b, 1-(2-(2-chlorophenoxy)ethyl)-N-((4-fluorophenyl)(pyridin-2-yl)methyl) piperidine-4-carboxamide] | > 30000 nM | > 30000 nM | 100 to 1000 nM | 100 to 1000 nM
 |  |  | O=C(NC(c1ccc(Cl)cc1)c1ccccc1F)C1CCN(CCOc2ccccc2F)CC1 (single isomer, unassigned) [Compound 96a, N-((4-chlorophenyl)(2-fluorophenyl)methyl)-1-(2-(2-fluorophenoxy)ethyl) piperidine-4-carboxamide] | > 30000 nM | 1000 to 10000 nM | 1000 to 10000 nM | > 30000 nM
 |  |  | COc1cccc(C(NC(=O)C2CCN(CCOc3ccccc3F)CC2)c2ccccn2)c1 (single isomer, unassigned) [Compound 22a, 1-(2-(2-fluorophenoxy)ethyl)-N-((3-methoxyphenyl)(pyridin-2-yl)methyl) piperidine-4-carboxamide] | > 30000 nM | 10000 to 30000 nM | 100 to 1000 nM | 100 to 1000 nM
 | > 30000 nM | 1000 to 10000 nM | Clc1ccc(C(c2ccccn2)N2CCC3(CCN(CCOc4ccccc4)CC3)C2)cc1 (single isomer, unassigned) [Compound 105b, 2-((4-chlorophenyl)(pyridin-2-yl)methyl)-8-(2-phenoxyethyl)-2,8-diazaspiro[4.5]decane] | 1000 to 10000 nM | 100 to 1000 nM |  | 
 |  |  | O=C(NC(c1ccc(Cl)cc1)c1ccccn1)C1CCN(CCOc2ccccc2F)CC1 (single isomer, unassigned) [Compound 3a] | > 30000 nM | > 30000 nM | 100 to 1000 nM | 100 to 1000 nM
 | > 30000 nM | 100 to 1000 nM | CC1(C(=O)NC(c2ccc(Cl)cc2)c2ccccn2)CCN(CCOc2ccccc2)CC1 (single isomer, unassigned) [Compound 144b, N-((4-chlorophenyl)(pyridin-2-yl)methyl)-4-methyl-1-(2-phenoxyethyl)piperidine-4-carboxamide] | 100 to 1000 nM | < 100 nM |  | 
 | 100 to 1000 nM | 1000 to 10000 nM | Fc1ccccc1C(NCC1CCN(CCOc2ccccc2)CC1)c1ccc(Cl)cc1 (single isomer, unassigned) [Compound 81b, 1-(4-chlorophenyl)-1-(2-fluorophenyl)-N-((1-(2-phenoxyethyl)piperidin-4-yl)methyl)methanamine] | > 30000 nM | > 30000 nM |  | 
 |  |  | O=C(NC(c1ccc(Cl)cc1)c1ccccn1)C1CCN(CCOc2cccc(F)c2)CC1 (single isomer, unassigned) [Compound 4b] | > 30000 nM | > 30000 nM | 1000 to 10000 nM | 100 to 1000 nM

Reference: patent publication US10752588B2 (The Broad Institute, Inc., priority 2014, dated 2020)
